Measurements taken from PubChem BioAssay (NCI).
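Five concentrations, 48 hours, 96-well plates. GI50: concentration for 50% inhibition of growth. TGI marks complete inhibition of growth.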

Legend:
Test in all cases: NCI tumour cell line growth inhibition, 48 h
[1] = test system: 786-0 renal
[2] = test system: EKVX NSCLC
[3] = test system: HCC-2998 colon
[4] = test system: HT29 colon
[5] = test system: LOX IMVI melanoma
[6] = test system: OVCAR-4 ovarian
[7] = test system: SF-295 CNS
[8] = test system: SK-MEL-5 melanoma
[9] = test system: SNB-75 CNS
[10] = test system: U251 CNS

Row | Compound | GI50 [1] | TGI [1] | GI50 [2] | TGI [2] | GI50 [3] | TGI [3] | GI50 [4] | TGI [4] | GI50 [5] | TGI [5] | GI50 [6] | TGI [6] | GI50 [7] | TGI [7] | GI50 [8] | TGI [8] | GI50 [9] | TGI [9] | GI50 [10] | TGI [10]
1 | CCCN(CCC)c1ccc(/C=N/NC(=O)c2cccnc2)c(Cl)c1 | 11.6 µM | 29.1 µM | 17 µM | 71.4 µM | 7.74 µM | 25.7 µM | 4.71 µM | 17.8 µM | 11.2 µM | 24.9 µM | 2.32 µM | 35.7 µM | 3.39 µM | 16.7 µM | 6.09 µM | 19 µM | 11.4 µM | 39.9 µM | 4.78 µM | 20.6 µM
2 | Cc1ccccc1CN1CC=c2ccccc2=N1 |  | > 100 µM |  | > 100 µM |  | > 100 µM |  | > 100 µM |  | > 100 µM |  | > 100 µM |  | > 100 µM |  | > 100 µM |  | > 100 µM |  | > 100 µM
3 | CN(C)CC1(C)CC/C(=C\c2ccccc2)C1=O (configuration not stated) |  | > 100 µM |  |  |  | > 100 µM |  | > 100 µM |  | > 100 µM |  | > 100 µM |  | > 100 µM |  | > 100 µM |  | > 100 µM |  | > 100 µM
4 | CN(C)CCNC(=O)c1cccc2[nH]c(-c3ccccc3)nc12 |  | > 100 µM |  | 53.5 µM |  | 29.1 µM |  | 57 µM |  | 29.7 µM |  | 82.5 µM |  | > 100 µM |  | 28.4 µM |  | 75.3 µM |  | 65.1 µM
5 | N.N.NCCCCN.O=C([O-])C1(C(=O)[O-])CCC1.O=C([O-])C1(C(=O)[O-])CCC1.[Pt+4].[Pt+4] | > 100 µM | > 100 µM | > 100 µM | > 100 µM | > 100 µM | > 100 µM | > 100 µM | > 100 µM | > 100 µM | > 100 µM | > 100 µM | > 100 µM | > 100 µM | > 100 µM | > 100 µM | > 100 µM | > 100 µM | > 100 µM | > 100 µM | > 100 µM
6 | NCc1nnn(Cc2ccccc2)c1N |  | > 100 µM |  | > 100 µM |  |  |  | > 100 µM |  | > 100 µM |  | > 100 µM |  | > 100 µM |  | > 100 µM |  | > 100 µM |  | > 100 µM
7 | COc1ccc2c(c1)CCC1C2CC[C@]2(C)/C(=N/OC(=O)Cc3ccccc3)CCC12 (some centres not stated) | 18.3 µM | 33.3 µM | 19.4 µM | 44.1 µM | 19.8 µM | 35.6 µM | 22.6 µM | > 100 µM | 18.5 µM | 37.2 µM | 18.4 µM | 48.5 µM | 16.7 µM | 33.8 µM | 12.5 µM | 29.5 µM | 19.9 µM | 47.7 µM | 19.6 µM | 37.4 µM
8 | O=C(Nc1nc2ncn(CC(COc3ccccc3)OC(=O)c3ccccc3)c2c(=O)[nH]1)c1ccccc1 (configuration not stated) |  | > 100 µM |  | > 100 µM |  |  |  | > 100 µM |  | > 100 µM |  | > 100 µM |  | > 100 µM |  | > 100 µM |  | > 100 µM |  | > 100 µM
9 | O=c1cnn2c(n1)sc1ccc3ccccc3c12 |  | > 100 µM |  | > 100 µM |  | > 100 µM |  | > 100 µM |  | > 100 µM |  | > 100 µM |  | > 100 µM |  | > 100 µM |  | > 100 µM |  | > 100 µM
10 | O=C(COc1ccccc1)NS(=O)(=O)c1ccccc1 |  | > 100 µM |  | > 100 µM |  | > 100 µM |  | > 100 µM |  | > 100 µM |  | > 100 µM |  | > 100 µM |  |  |  | > 100 µM |  | > 100 µM
11 | COC(=O)C1=C(C(=O)OC)C23C=C(C)C1C2=C(C)C1(CC1)[C@@](C)(O)C3=O (some centres not stated) | 0.323 µM | 3.05 µM | 0.615 µM | 5.42 µM | 0.245 µM | 0.693 µM | 0.337 µM | 16.9 µM | 0.358 µM | 2.89 µM | 0.484 µM | 6.43 µM | 0.282 µM |  | 0.164 µM | 0.314 µM | 0.198 µM | 0.547 µM | 0.311 µM | > 42.8 µM
12 | COc1ccc(C(c2c(O)c3ccccc3n(C)c2=O)c2c(O)c3ccccc3n(C)c2=O)cc1 |  | > 100 µM |  | > 100 µM |  | > 100 µM |  | > 100 µM |  | > 100 µM |  | > 100 µM |  | > 100 µM |  | 54.6 µM |  | > 100 µM |  | 44.2 µM
13 | NS(=O)(=O)c1ccc(N2N=C3c4ccccc4CC3C2c2ccc(Cl)cc2)cc1 (configuration not stated) | 6.28 µM | 24.9 µM | 14.1 µM | 58.9 µM | 10.3 µM | 27.7 µM | 15.7 µM | > 100 µM | 18 µM | 36.5 µM | 9.77 µM | 30.6 µM | 16.3 µM | 34.2 µM | 2.3 µM | 5.85 µM | 2.97 µM | 7.94 µM | 20.2 µM | 42.5 µM
14 | COc1ccc([N+](=O)[O-])c(S(=O)(=O)c2ccc(Cl)cc2)n1 | 2.51 µM | 7.18 µM |  |  | 8.38 µM | 23.8 µM | 3.34 µM | 13.9 µM | 1.98 µM | 4.19 µM | 2.32 µM | 6.51 µM | 13.1 µM | 28 µM | 12 µM | 24.9 µM | 11 µM | 23.6 µM | 8.69 µM | 21.6 µM
15 | Nc1c(C(=O)Nc2ccccc2Cl)sc2nc3c(cc12)CCCCCC3 | 1.75 µM | 3.27 µM |  |  | 7.06 µM | > 100 µM | 2.39 µM | 13.4 µM | 5.7 µM | > 100 µM | 2.11 µM | 5.1 µM | 2.47 µM | 13.6 µM | 3.91 µM | > 100 µM | 1.57 µM | 3.35 µM | 2.99 µM | 21.3 µM
16 | CCCCCCCC/C=C\CCCCCCCC(=O)NCCN(CCN)C(=O)CCCCCCC/C=C\CCCCCCCC |  | > 100 µM |  |  |  | > 100 µM |  | > 100 µM |  | > 100 µM |  | > 100 µM |  | > 100 µM |  | > 100 µM |  |  |  | > 100 µM
17 | COC(=O)C(Cl)=C1CC1 |  | 65.4 µM |  |  |  | > 100 µM |  | > 100 µM |  | 59.6 µM |  | > 100 µM |  | > 100 µM |  | 84.9 µM |  | > 100 µM |  | 
